# Experimental data: patent US11958880B2, “Means and methods for site-specific functionalization of polypeptides” (LUDWIG-MAXIMILIANS-UNIVERSITÄT MÜNCHEN, priority 2014, dated 2024)
# What was measured:
# Type in all cases: biochemical
# [1] = molecular target: T1, tubulin tyrosine ligase (TTL) (Canis lupus familiaris, UniProt A0A8I3N5B1); assay: TTL tyrosination of carboxyfluorescein-labeled Tub-tag peptide (CF-Tub-tag), isocratic HPLC-fluorescence; conditions: TTL:peptide 1:200, after 120 min of incubation at 37° C.
# T1 construct: His-Tag (N); SUMO3 (Sumo) (N); made in house; host or cells: E. coli BL21(DE3)
# T1 sequence (A0A8I3N5B1 1-377): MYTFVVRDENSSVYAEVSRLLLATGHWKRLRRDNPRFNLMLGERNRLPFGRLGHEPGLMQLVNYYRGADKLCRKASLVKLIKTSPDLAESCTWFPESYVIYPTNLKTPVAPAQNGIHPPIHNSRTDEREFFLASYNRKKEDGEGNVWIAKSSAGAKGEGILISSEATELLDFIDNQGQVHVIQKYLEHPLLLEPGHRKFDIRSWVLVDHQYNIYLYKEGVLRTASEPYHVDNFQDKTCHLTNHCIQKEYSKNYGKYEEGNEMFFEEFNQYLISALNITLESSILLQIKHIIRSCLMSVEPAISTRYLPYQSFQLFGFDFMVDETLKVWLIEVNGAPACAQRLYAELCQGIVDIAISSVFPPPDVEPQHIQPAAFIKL
# Method: Tyrosination reactions were performed in a 250 μL solution consisting of 20 mM MES/K pH 7.0, 100 mM KCl, 10 mM MgCl2, 2.5 mM ATP, 1 mM tyrosine derivative, 0.2 mM peptide, 1 μM TTL and 5 mM DTT in case of compound 1, 2, 4 and 5 or 5 mM reduced glutathione in case of compound 3, respectively. The mixture was incubated at 37° C. and several aliquots (25 μL) were taken within 24 h, mixed with equal volumes of H2O+0.1% TFA and subjected either to isocratic analytical HPLC equipped with a fluorescence detector (Method A) or analytical UPLC-MS analysis. Quantities of substrate and product peptides were estimated from the corresponding peak-area in the fluorescence or UV detection spectrum (Ex/Em: 495/517).
# Tyrosination reactions were performed in a 250 μL solution consisting of 20 mM MES/K pH 7.0, 100 mM KCl, 10 mM MgCl2, 2.5 mM ATP, 1 mM tyrosine derivative, 0.2 mM CF-Tub-tag 13, 1 μM TTL and 5 mM DTT in case of compound 2 or 5 mM reduced glutathione in case of compound 1, respectively. The mixture was incubated at 37° C. and several aliquots (25 μL) were taken, mixed with equal volumes of H2O+0.1% TFA and subjected to isocratic analytical HPLC equipped with a fluorescence detector (Method: A=H2O+0.1% TFA, B=MeCN+0.1% TFA; 35% B, 0-15 min, 10-100% B 15-17 min, 100% B 17-22 min, 100-35% B 22-25 min and 35% B 25-30 min.). […]
# [2] = molecular target: T1, tubulin tyrosine ligase (TTL); assay: TTL reaction on GBP4 followed by tryptic digest and HPLC-MS/MS; conditions: 1 mM tyrosine derivative, 1 μM TTL, 5 μM nanobody, 37° C., 24 h
# Method: Nanobodies were tyrosinated as described in Example 8. Proteins were separated by SDS-PAGE. Protein bands of interest were excised, soaked with 100 μL 50 mM (NH4)2CO3/ACN 1:1 and incubated at 30° C. for 10 min. The supernatant was removed and the gel pieces were incubated in 50 mM (NH4)2CO3 at 30° C. for further 10 min. The two incubation steps were repeated until the pieces were colorless. Hereafter, the gel pieces were dehydrated by the addition of 25 μL ACN, the supernatant removed and the gels were dried under reduced pressure. In-gel digest was performed in a total volume of 20 μL 50 mM (NH4)2CO3 at 37° C. for 12 h using 0.05 μg Trypsin. 20 μL ACN+0.5% TFA were added, the mixture was incubated in an ultrasonic bath, the supernatant transferred to LC glass vials, the solvent was removed under reduced pressure and the residual peptides resuspended in 6 μL 95% H2O+0.1% TFA, 5% ACN+0.1% TFA solution. Peptides were separated by HPLC and analysed by MSMS experiments.
# Tyrosination reactions were performed in a 50 μL solution consisting of 20 mM MES/K pH 7.0, 100 mM KCl, 10 mM MgCl2, 2.5 mM ATP, 1 mM tyrosine derivative, 1 μM TTL, 5 μM nanobody and 5 mM reduced glutathione in case of compound 3 and 5 mM DTT in case of compound 1, 2, 9 and tyrosine (6), respectively. The mixture was incubated at 37° C. for 24 h. Proteins were separated by SDS-PAGE. Protein bands of interest were excised, soaked with 100 μL 50 mM (NH4)2CO3/ACN 1:1 and incubated at 30° C. for 10 min. The supernatant was removed and the gel pieces were incubated in 50 mM (NH4)2CO3 at 30° C. for further 10 min. The two incubation steps were repeated until the pieces were colourless. Hereafter, the gel pieces were dehydrated by the addition of 25 μL ACN, the supernatant removed and the gels were dried under reduced pressure. In-gel digest was performed in a total volume of 20 μL 50 mM (NH4)2CO3 at 37° C. for 12 h using 0.05 μg trypsin (Thermo Fisher Scientific, USA). 20 μL ACN+0.5% TFA was added, the mixture incubated in an ultrasonic bath, the supernatant transferred to LC glass vials, the solvent removed under reduced pressure and the residual peptides resuspended in 6 μL 95% H2O+0.1% TFA, 5% ACN+0.1% TFA solution. Peptides were separated by HPLC and analyzed by MSMS experiments.
# [3] = molecular target: T1, tubulin tyrosine ligase (TTL); assay: TTL-mediated incorporation of tyrosine derivative to the C-terminus of GBP4 followed by SPAAC to DBCO-biotin (SDS-PAGE/western blot); conditions: for GBP4 converted (C-terminally modified GBP4): one hour; for GBP4 conversion: three hours
# Method: Tyrosination reactions were performed in a 150 μL solution consisting of 20 mM MES/K pH 7.0, 100 mM KCl, 10 mM MgCl2, 2.5 mM ATP, 1 mM tyrosine derivative, 0.1-1 μM TTL, 5 μM nanobody and 5 mM reduced glutathione in case of compounds containing azides or 5 mM DTT for all other derivatives, respectively. The mixture was incubated at 37° C. for 1-3 h.
# Tyrosination reactions were performed as described in Example 16 using compound 3, 5 mM reduced glutathione and a ratio of 10:1 GBP4/TTL for 3 h. The reaction mixtures were rebuffered to Dulbecco's PBS pH 7.4 and incubated with 30 eq. of Sulfo-Cy5-DBCO (Jena Bioscience GmbH, Germany) or DBCO-PEG4-biotin (Jena Bioscience GmbH, Germany) at 30° C. for 4 h. Proteins were separated by SDS-PAGE. Biotinylated nanobodies were wet blotted onto a nitrocellulose membrane using a Bio-Rad Mini-Protean Tetra System (250 mA, one hour). A streptavidin peroxidase conjugate (Merck Millipore, Germany) was used for detection. Fluorescently labeled nanobodies were visualized by a Fuji FLA-5000 laser imager (634 nm excitation, LPG-filter) (Fujifilm, Japan).
SMILES,conjugate yield [1] [%],C-terminal addition to GBP4 shown by HPLC-MS/MS [2],"GBP4 converted (C-terminally modified GBP4) ([3]; ratio 1:5 TTL/GBP4, 37° C.) [%]","GBP4 conversion ([3]; ratio 1:5 TTL/GBP4, 37° C.) [%]","GBP4 converted (C-terminally modified GBP4) ([3]; ratio 1:10 TTL/GBP4, 37° C.) [%]","GBP4 conversion ([3]; ratio 1:10 TTL/GBP4, 37° C.) [%]"
"N[C@@H](Cc1ccc(O)c(C=O)c1)C(=O)O [compound 1, 3-formyl-L-tyrosine]",63,successful C-terminal addition,,,,
"N[C@@H](Cc1ccc(O)c([N+](=O)[O-])c1)C(=O)O [compound 2, 3-nitro-L-tyrosine]",,successful C-terminal addition,,,,
"[N-]=[N+]=Nc1cc(C[C@H](N)C(=O)O)ccc1O [compound 3, 3-azido-L-tyrosine]",80,successful C-terminal addition,82,99,71,88

# The remaining lines, values ahead:
conjugate yield [1] [%],C-terminal addition to GBP4 shown by HPLC-MS/MS [2],"GBP4 converted (C-terminally modified GBP4) ([3]; ratio 1:5 TTL/GBP4, 37° C.) [%]","GBP4 conversion ([3]; ratio 1:5 TTL/GBP4, 37° C.) [%]","GBP4 converted (C-terminally modified GBP4) ([3]; ratio 1:10 TTL/GBP4, 37° C.) [%]","GBP4 conversion ([3]; ratio 1:10 TTL/GBP4, 37° C.) [%]",SMILES
,successful C-terminal addition,,,,,"N[C@@H](Cc1ccc(O)cc1)C(=O)O [compound 6, L-tyrosine, reference compound]"
,successful C-terminal addition,,,,,"Nc1cc(C[C@H](N)C(=O)O)ccc1O [compound 9, 3-amino-L-tyrosine]"
